Consider one molecule from patent US20080234304A1, “N3-Pyridyl-Thiamine And Its Use In Cancer Treatments” (AVEO PHARMACEUTICALS, INC., priority 2004, published 2008).

The experiment addresses T1, transketolase (Homo sapiens, UniProt P29401).
T1 construct: Cells were lysed by vortexing and cell extracts assayed for transketolase activity; endogenous in cells; other cell lines not specified
T1 sequence (P29401 1-623): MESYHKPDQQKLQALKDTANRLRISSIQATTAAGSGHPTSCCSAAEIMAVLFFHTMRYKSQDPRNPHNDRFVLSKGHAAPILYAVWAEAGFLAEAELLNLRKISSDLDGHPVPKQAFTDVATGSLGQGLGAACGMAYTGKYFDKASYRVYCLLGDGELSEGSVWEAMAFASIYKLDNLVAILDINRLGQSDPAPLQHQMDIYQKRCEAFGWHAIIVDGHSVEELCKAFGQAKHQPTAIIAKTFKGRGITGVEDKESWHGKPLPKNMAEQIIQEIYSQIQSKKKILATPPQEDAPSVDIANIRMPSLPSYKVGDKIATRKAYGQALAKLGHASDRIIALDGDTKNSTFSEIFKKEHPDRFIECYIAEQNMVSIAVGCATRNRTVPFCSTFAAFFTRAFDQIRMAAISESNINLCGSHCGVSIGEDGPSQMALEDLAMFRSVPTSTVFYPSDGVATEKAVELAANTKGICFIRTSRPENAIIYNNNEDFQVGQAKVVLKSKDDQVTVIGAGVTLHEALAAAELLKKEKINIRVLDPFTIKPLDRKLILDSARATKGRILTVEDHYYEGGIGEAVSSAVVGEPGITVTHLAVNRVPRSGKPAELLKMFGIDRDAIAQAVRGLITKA
Briefly: transketolase activity in cell based assay (lysates of N3PT-treated cells, GAPDH-coupled NADH readout). The method, then:
Human carcinoma cell lines, such as, but not restricted to, HCT116, HT1080, DLD-1, Rv22, MIA PA CA-2, HCT-15, and murine cell lines, CT26, 4T1 (all cell lines described are available from the ATCC), were cultured in standard conditions (37 C, 5% CO2) in DMEM media (10% FBS, 1% Penicillin-Streptomycin) and harvested at 60-80% confluency by trypsinization. Approximately 2 million cells were collected in an Eppendorf tube and washed 2 times (2×) with PBS by centrifugation and stored at −20° C. as cell pellets. Ice-cold lysis buffer (1 ml) (20 mM HEPES, pH 7.5, 1 mM EDTA, 0.2 g/l Triton X-100 and 0.2 g/L sodium deoxycholate, supplemented with 1 mM DTT and 1 mM PMSF just before use) was added to each cell pellet. Cells were lysed by vortexing and cell extracts assayed for transketolase activity at pH 7.5, by coupling a subsequent glyceraldehyde-3-phosphate dehydrogenase (GAPDH) reaction and measuring conversion of NAD to NADH (FIG. 1).
The assay was carried out as follows. […] of […] assay buffer containing final concentrations of 50 mM HEPES, 40 mM KCl, 2.5 mM MgCl2, 5 mM NaArsenate, 1 mM NAD, 2 unit/ml glyceraldehydes-3-phosphate dehydrogenase (GAPDH) was added to 80 μl of lysate. Reaction kinetics were monitored on a fluorescent plate reader to allow any possible background activity via GAPDH to burn out. Then 5 ul of substrate mix containing final concentrations of 0.5 mM ribose-5-phosphate and 0.5 mM xylulose-5-phosphate was added to initiate the reaction. The reaction kinetics were monitored using a fluorescent plate reader, and the slope of the initial linear range was recorded as the velocity of the reaction (FU/min).
TK, kGDH and PDH enzymes all utilize thiamine pyrophosphate (TPP) as a co-factor for their catalysis. Conventional cell culture media (e.g., DMEM, RPMI) have high levels of thiamine (12 μM and 3 μM, respectively). […]
Log-phase growing cells were trypsinized and resuspended in TDM. […] TK activities could be measured from ≧5000 cells in most cell lines tested. […]
Enzymatic inhibition was expressed as percent of control cells that were not treated with compounds. […]

pIC50: −log10 of the molar value. Entries after “also recorded” stand apart in the source; their conditions may differ. Like-named read-outs stand apart in the source and are kept apart here.

Regarding `Cc1ccc(C[n+]2csc(CCO)c2C)c(N)n1` [N3PT, 3-[(2-amino-6-methyl-3-pyridinyl)methyl]-5-(2-hydroxyethyl)-4-methyl thiazolium], the “duration of inhibition of cellular transketolase activity” value (cells treated two days, washed out, TK monitored days 3-7) is reported as “long lasting; also recorded: persists for several days”. For the same molecule, the negative logarithm of the IC50 (pIC50) is 8.15 (extracts from cells incubated with increasing concentrations of N3PT, read-out: IC50 transketolase (selectivity comparison, FIG. 9)) and 7.57 (production of glyceraldehyde-3-phosphate by transketolase, read-out: IC50 transketolase in cell assays).

For orientation: pIC50 means the IC50 on a negative log10 scale, so that one unit is a factor of ten.
